Results reported in PubChem BioAssay AID256 (DTP/NCI, 2004).
Several values for one entry are separate records, joined by “and”; a condition that tells them apart may be missing. Equal entries are not always repeated. Toxic doses and inconclusive results are not listed.

Tested on: CD2F1 mice, L1210 leukemia ip, survival T/C
Assay: NCI In Vivo Anticancer Drug Screen. Data for tumor model L1210 Leukemia (intraperitoneal) in CD2F1 (CDF1) mice
Details: higher = longer survival
Method in brief: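 Each value reflects a quotient of treated over vehicle control outcomes in mice with a transplanted tumor.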

O=c1[nH]cc(F)c(=O)[nH]1
T/C (endpoint: mean survival time, dose: 2.5 mg/kg/injection, schedule: Q01DX009 (ip), vehicle: saline): 113 % of control | T/C (endpoint: mean survival time, dose: 3.75 mg/kg/injection, schedule: Q01DX003 (ip), vehicle: saline): 116 % of control | T/C (endpoint: mean survival time, dose: 3.75 mg/kg/injection, schedule: Q01DX005 (ip), vehicle: saline): 114 % of control and 122 % of control | T/C (endpoint: mean survival time, dose: 4.0 mg/kg/injection, schedule: Q03HX016 (ip), vehicle: water): 167 % of control | T/C (endpoint: mean survival time, dose: 4.0 mg/kg/injection, schedule: Q03HX024 (ip), vehicle: water): 153 % of control | T/C (endpoint: mean survival time, dose: 5.0 mg/kg/injection, schedule: Q01DX009 (ip), vehicle: saline): 124 % of control | T/C (endpoint: mean survival time, dose: 7.5 mg/kg/injection, schedule: Q03HX024 (ip), vehicle: saline): 157 % of control | T/C (endpoint: mean survival time, dose: 8.0 mg/kg/injection, schedule: Q01DX009 (ip), vehicle: water): 151 % of control | T/C (endpoint: mean survival time, dose: 8.0 mg/kg/injection, schedule: Q03HX016 (ip), vehicle: water): 154 % of control | T/C (endpoint: mean survival time, dose: 10.0 mg/kg/injection, schedule: Q01DX002 (ip), vehicle: saline): 124 % of control | T/C (endpoint: mean survival time, dose: 10.0 mg/kg/injection, schedule: Q01DX006 (ip), vehicle: saline): 161 % of control | T/C (endpoint: mean survival time, dose: 10.0 mg/kg/injection, schedule: Q03HX016 (ip), vehicle: saline): 152 % of control | T/C (endpoint: mean survival time, dose: 10.8 mg/kg/injection, schedule: Q01DX009 (ip), vehicle: saline): 150 % of control | T/C (endpoint: mean survival time, dose: 12.0 mg/kg/injection, schedule: Q04DX003 (ip), vehicle: saline): 121 % of control | T/C (endpoint: mean survival time, dose: 12.5 mg/kg/injection, schedule: Q03HX024 (oral), vehicle: saline): 122 % of control | T/C (endpoint: mean survival time, dose: 13.3 mg/kg/injection, schedule: Q01DX009 (ip), vehicle: saline sonified): 168 % of control | T/C (endpoint: mean survival time, dose: 14.0 mg/kg/injection, schedule: Q01DX009 (ip), vehicle: saline sonified): 160 % of control | T/C (endpoint: mean survival time, dose: 14.0 mg/kg/injection, schedule: Q01DX009 (ip), vehicle: saline with Tween-80): 157 % of control and 172 % of control | T/C (endpoint: mean survival time, dose: 15.0 mg/kg/injection, schedule: Q01DX005 (ip), vehicle: saline): 158 % of control and 169 % of control | T/C (endpoint: mean survival time, dose: 16.0 mg/kg/injection, schedule: Q01DX009 (oral), vehicle: saline): 114 % of control | T/C (endpoint: mean survival time, dose: 16.0 mg/kg/injection, schedule: Q03HX008 (ip), vehicle: water): 163 % of control | T/C (endpoint: mean survival time, dose: 16.0 mg/kg/injection, schedule: Q03HX024 (ip), vehicle: water): 120 % of control | T/C (endpoint: mean survival time, dose: 20.0 mg/kg/injection, schedule: Q01DX009 (ip), vehicle: saline sonified): 169 % of control | T/C (endpoint: mean survival time, dose: 20.0 mg/kg/injection, schedule: Q03DX003 (ip), vehicle: saline): 152 % of control | T/C (endpoint: mean survival time, dose: 22.5 mg/kg/injection, schedule: Q01DX009 (ip), vehicle: saline): 117 % of control | T/C (endpoint: mean survival time, dose: 25.0 mg/kg/injection, schedule: Q01DX001 (ip), vehicle: saline): 117 % of control | T/C (endpoint: mean survival time, dose: 25.0 mg/kg/injection, schedule: Q03HX024 (oral), vehicle: saline): 118 % of control | T/C (endpoint: mean survival time, dose: 30.0 mg/kg/injection, schedule: Q01DX003 (ip), vehicle: saline): 168 % of control | T/C (endpoint: mean survival time, dose: 30.0 mg/kg/injection, schedule: Q01DX003 (oral), vehicle: saline): 123 % of control | T/C (endpoint: mean survival time, dose: 30.0 mg/kg/injection, schedule: Q01DX005 (oral), vehicle: saline): 119 % of control | T/C (endpoint: mean survival time, dose: 30.0 mg/kg/injection, schedule: Q01DX009 (ip), vehicle: saline sonified): 152 % of control | T/C (endpoint: mean survival time, dose: 30.0 mg/kg/injection, schedule: Q04DX003 (ip), vehicle: saline sonified): 152 % of control | T/C (endpoint: mean survival time, dose: 32.0 mg/kg/injection, schedule: Q04DX003 (ip), vehicle: water): 169 % of control | T/C (endpoint: mean survival time, dose: 32.0 mg/kg/injection, schedule: Q08DX002 (ip), vehicle: water): 154 % of control | T/C (endpoint: mean survival time, dose: 40.0 mg/kg/injection, schedule: Q04DX003 (ip), vehicle: saline sonified): 165 % of control | T/C (endpoint: mean survival time, dose: 40.0 mg/kg/injection, schedule: Q04DX003 (ip), vehicle: saline with Tween-80): 160 % of control and 163 % of control and 172 % of control | T/C (endpoint: mean survival time, dose: 44.0 mg/kg/injection, schedule: Q04DX003 (ip), vehicle: saline): 172 % of control | T/C (endpoint: mean survival time, dose: 50.0 mg/kg/injection, schedule: Q01DX009 (oral), vehicle: saline): 116 % of control | T/C (endpoint: mean survival time, dose: 50.0 mg/kg/injection, schedule: Q03HX008 (oral), vehicle: saline): 122 % of control | T/C (endpoint: mean survival time, dose: 50.0 mg/kg/injection, schedule: Q04DX003 (ip), vehicle: saline): 172 % of control | T/C (endpoint: mean survival time, dose: 60.0 mg/kg/injection, schedule: Q01DX005 (oral), vehicle: saline): 117 % of control | T/C (endpoint: mean survival time, dose: 60.0 mg/kg/injection, schedule: Q03HX024 (ip), vehicle: saline): 164 % of control | T/C (endpoint: mean survival time, dose: 60.0 mg/kg/injection, schedule: Q04DX003 (ip), vehicle: saline sonified): 164 % of control | T/C (endpoint: mean survival time, dose: 60.0 mg/kg/injection, schedule: Q04DX003 (ip), vehicle: saline with Tween-80): 164 % of control | T/C (endpoint: mean survival time, dose: 62.5 mg/kg/injection, schedule: Q01DX001 (oral), vehicle: saline): 113 % of control | T/C (endpoint: mean survival time, dose: 64.0 mg/kg/injection, schedule: Q01DX009 (oral), vehicle: saline): 119 % of control | T/C (endpoint: mean survival time, dose: 64.0 mg/kg/injection, schedule: Q04DX003 (ip), vehicle: water): 160 % of control | T/C (endpoint: mean survival time, dose: 64.0 mg/kg/injection, schedule: Q08DX002 (ip), vehicle: water): 164 % of control | T/C (endpoint: mean survival time, dose: 67.5 mg/kg/injection, schedule: Q04DX003 (ip), vehicle: saline): 150 % of control | T/C (endpoint: mean survival time, dose: 80.0 mg/kg/injection, schedule: Q03HX024 (ip), vehicle: saline): 176 % of control | T/C (endpoint: mean survival time, dose: 80.0 mg/kg/injection, schedule: Q04DX003 (ip), vehicle: saline sonified): 160 % of control | T/C (endpoint: mean survival time, dose: 100.0 mg/kg/injection, schedule: Q08DX002 (oral), vehicle: saline): 151 % of control | T/C (endpoint: mean survival time, dose: 128.0 mg/kg/injection, schedule: Q04DX003 (ip), vehicle: water): 120 % of control | T/C (endpoint: mean survival time, dose: 128.0 mg/kg/injection, schedule: Q08DX002 (ip), vehicle: water): 167 % of control | T/C (endpoint: mean survival time, dose: 132.0 mg/kg/injection, schedule: Q01DX001 (ip), vehicle: saline): 153 % of control | T/C (endpoint: mean survival time, dose: 166.0 mg/kg/injection, schedule: Q01DX001 (ip), vehicle: saline with Tween-80): 150 % of control | T/C (endpoint: mean survival time, dose: 200.0 mg/kg/injection, schedule: Q01DX001 (oral), vehicle: saline): 118 % of control | T/C (endpoint: mean survival time, dose: 200.0 mg/kg/injection, schedule: Q04DX003 (ip), vehicle: saline): 159 % of control | T/C (endpoint: mean survival time, dose: 256.0 mg/kg/injection, schedule: Q08DX002 (ip), vehicle: water): 120 % of control | T/C (endpoint: mean survival time, dose: 300.0 mg/kg/injection, schedule: Q01DX001 (ip), vehicle: saline with Tween-80): 153 % of control | T/C (endpoint: mean survival time, dose: 338.0 mg/kg/injection, schedule: Q01DX001 (ip), vehicle: saline): 150 % of control | T/C (endpoint: mean survival time, dose: 400.0 mg/kg/injection, schedule: Q04DX003 (ip), vehicle: saline with Tween-80): 117 % of control | T/C (endpoint: mean survival time, dose: 400.0 mg/kg/injection, schedule: Q04DX003 (ip), vehicle: saline): 161 % of control | T/C (endpoint: median survival time, dose: 6.48 mg/kg/injection, schedule: Q01DX009 (ip), vehicle: saline): 120 % of control | T/C (endpoint: median survival time, dose: 7.5 mg/kg/injection, schedule: Q01DX009 (ip), vehicle: saline): 153 % of control | T/C (endpoint: median survival time, dose: 7.5 mg/kg/injection, schedule: Q## X009 (ip), vehicle: saline): 153 % of control | T/C (endpoint: median survival time, dose: 10.0 mg/kg/injection, schedule: Q01DX001 (ip), vehicle: saline): 152 % of control | T/C (endpoint: median survival time, dose: 13.0 mg/kg/injection, schedule: Q04DX002 (ip), vehicle: saline): 121 % of control | T/C (endpoint: median survival time, dose: 13.0 mg/kg/injection, schedule: Q04DX003 (ip), vehicle: saline): 121 % of control | T/C (endpoint: median survival time, dose: 14.3 mg/kg/injection, schedule: Q04DX003 (ip), vehicle: saline): 124 % of control | T/C (endpoint: median survival time, dose: 15.0 mg/kg/injection, schedule: Q01DX005 (ip), vehicle: saline): 165 % of control | T/C (endpoint: median survival time, dose: 15.0 mg/kg/injection, schedule: Q01DX009 (ip), vehicle: saline): 167 % of control | T/C (endpoint: median survival time, dose: 15.0 mg/kg/injection, schedule: Q## X009 (ip), vehicle: saline): 167 % of control | T/C (endpoint: median survival time, dose: 20.0 mg/kg/injection, schedule: Q01DX001 (ip), vehicle: saline): 154 % of control | T/C (endpoint: median survival time, dose: 21.6 mg/kg/injection, schedule: Q04DX002 (ip), vehicle: saline): 123 % of control | T/C (endpoint: median survival time, dose: 30.0 mg/kg/injection, schedule: Q01DX009 (ip), vehicle: saline): 173 % of control | T/C (endpoint: median survival time, dose: 36.0 mg/kg/injection, schedule: Q04DX003 (ip), vehicle: saline): 160 % of control and 167 % of control | T/C (endpoint: median survival time, dose: 39.6 mg/kg/injection, schedule: Q04DX003 (ip), vehicle: saline): 164 % of control | T/C (endpoint: median survival time, dose: 40.0 mg/kg/injection, schedule: Q04DX002 (ip), vehicle: saline): 162 % of control | T/C (endpoint: median survival time, dose: 80.0 mg/kg/injection, schedule: Q04DX002 (ip), vehicle: saline): 166 % of control | T/C (endpoint: median survival time, dose: 100.0 mg/kg/injection, schedule: Q04DX003 (ip), vehicle: saline): 151 % of control | T/C (endpoint: median survival time, dose: 300.0 mg/kg/injection, schedule: Q01DX001 (ip), vehicle: Klucel (hydroxypropylcellulose) (HPC)): 174 % of control
